Laboratory results as given in US8999374B2, “Method of inhibiting salmonella in livestock and poultry” (priority 2002, dated 2015).

Tested on: Salmonella enteritidis KTE-61 strain
Assay: Inhibition test of salmonella/yeast agglutination
Type: cell-based
Protocol: Inhibition tests of salmonella agglutination were carried out on various saccharides as follows. […] Preliminary test was carried out for observing by stereoscopic microscope (OLYMPUS Co., Ltd) that agglutination occurs in this liquid mixture.
Next, in a similar manner to the aforementioned preliminary test, with the use of aqueous solution of saccharide where the aforementioned taken β-1,4-mannobiose and a mannose reagent (D-Mannose; Wako Pure Chemical Industries, Ltd.) were used instead of distilled water, the minimum concentration for inhibiting agglutination of liquid mixture (the minimum concentration for inhibiting agglutination) was obtained by varying the concentration, respectively. The actual minimum concentration for inhibiting the agglutination in liquid mixture and the relative concentration (ratio of concentration) when the minimum concentration for inhibiting agglutination of mannose is set 1 are shown in table 1.

Compound: OC[C@H]1O[C@@H](O[C@H]2[C@H](O)[C@H](O)C(O)O[C@@H]2CO)[C@@H](O)[C@@H](O)[C@@H]1O (stereo partly drawn) [Mannobiose, β-1,4-mannobiose]
- minimum concentration for inhibiting agglutination, Actual Concentration (Salmonella enteritidis KTE-61 with yeast Candida albicans KI-102001, concentration in liquid mixture): 1290 µg/mL
- Relative Concentration (Based on Mannose) (minimum concentration for inhibiting agglutination, mannose set to 1): 2.173
